Experiments:
[1] = target: Homeodomain-interacting protein kinase 3 (Homo sapiens) (UniProt Q9H422); assay: Inhibition of human recombinant HIPK3 at 500 nM in presence of ATP by radiometric assay relative to control
[2] = target: Dual specificity tyrosine-phosphorylation-regulated kinase 1A (Homo sapiens) (UniProt Q13627); assay: Inhibition of human recombinant DYRK1A at 500 nM in presence of ATP by radiometric assay relative to control
[3] = target: T1, MAP/microtubule affinity-regulating kinase 4 (Homo sapiens) (UniProt Q96L34); assay: Inhibition of human recombinant MARK4 at 500 nM related to control ULK1
T1 sequence (whole entry): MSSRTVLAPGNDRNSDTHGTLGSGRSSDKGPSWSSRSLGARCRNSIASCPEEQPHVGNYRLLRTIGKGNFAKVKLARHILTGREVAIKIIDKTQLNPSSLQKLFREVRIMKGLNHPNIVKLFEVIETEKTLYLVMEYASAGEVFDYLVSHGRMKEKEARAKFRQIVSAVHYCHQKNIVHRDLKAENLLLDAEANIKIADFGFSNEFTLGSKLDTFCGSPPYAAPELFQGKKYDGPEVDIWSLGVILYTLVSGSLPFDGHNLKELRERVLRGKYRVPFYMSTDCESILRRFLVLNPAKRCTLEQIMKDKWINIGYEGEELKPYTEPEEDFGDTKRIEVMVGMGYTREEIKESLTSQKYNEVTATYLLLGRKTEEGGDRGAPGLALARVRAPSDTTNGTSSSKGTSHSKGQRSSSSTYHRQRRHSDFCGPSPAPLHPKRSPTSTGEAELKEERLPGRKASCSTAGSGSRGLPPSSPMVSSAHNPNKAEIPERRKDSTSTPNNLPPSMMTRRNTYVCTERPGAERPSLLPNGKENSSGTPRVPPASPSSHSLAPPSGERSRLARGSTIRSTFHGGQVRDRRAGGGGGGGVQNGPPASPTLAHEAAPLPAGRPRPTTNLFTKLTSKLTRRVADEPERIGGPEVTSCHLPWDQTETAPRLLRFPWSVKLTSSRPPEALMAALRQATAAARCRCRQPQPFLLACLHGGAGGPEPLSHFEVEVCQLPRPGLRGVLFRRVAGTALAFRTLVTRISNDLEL

[4] = target: Calcium/calmodulin-dependent protein kinase type 1 (Homo sapiens) (UniProt Q14012); assay: Inhibition of human recombinant CaMK1a at 500 nM in presence of ATP by radiometric assay relative to control
[5] = target: T2, NUAK family SNF1-like kinase 2 (Homo sapiens) (UniProt Q9H093); assay: Inhibition of human recombinant NuaK2 at 15 nM related to control ULK1
T2 sequence (whole entry): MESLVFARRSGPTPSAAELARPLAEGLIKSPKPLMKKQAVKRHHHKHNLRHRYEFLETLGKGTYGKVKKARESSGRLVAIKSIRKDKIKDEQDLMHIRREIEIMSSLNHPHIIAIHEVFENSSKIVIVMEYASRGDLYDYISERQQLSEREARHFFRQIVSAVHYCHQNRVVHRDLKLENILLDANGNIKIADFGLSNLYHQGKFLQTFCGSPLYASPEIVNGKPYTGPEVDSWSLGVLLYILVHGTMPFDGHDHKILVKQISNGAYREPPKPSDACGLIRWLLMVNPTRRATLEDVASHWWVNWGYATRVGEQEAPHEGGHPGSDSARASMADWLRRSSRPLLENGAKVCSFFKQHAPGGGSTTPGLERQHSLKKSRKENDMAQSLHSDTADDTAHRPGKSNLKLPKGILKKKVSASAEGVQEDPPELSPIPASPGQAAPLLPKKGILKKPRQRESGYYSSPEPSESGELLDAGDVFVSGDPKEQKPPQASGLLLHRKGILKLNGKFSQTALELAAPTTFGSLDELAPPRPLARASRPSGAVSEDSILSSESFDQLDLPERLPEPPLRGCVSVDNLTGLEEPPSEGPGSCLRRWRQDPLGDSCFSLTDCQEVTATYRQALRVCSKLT

[6] = target: T3, TGF-beta receptor type-1 (Homo sapiens) (UniProt P36897); assay: Inhibition of human recombinant TGFbR1 at 15 nM in presence of ATP by radiometric assay relative to control
T3 sequence (whole entry): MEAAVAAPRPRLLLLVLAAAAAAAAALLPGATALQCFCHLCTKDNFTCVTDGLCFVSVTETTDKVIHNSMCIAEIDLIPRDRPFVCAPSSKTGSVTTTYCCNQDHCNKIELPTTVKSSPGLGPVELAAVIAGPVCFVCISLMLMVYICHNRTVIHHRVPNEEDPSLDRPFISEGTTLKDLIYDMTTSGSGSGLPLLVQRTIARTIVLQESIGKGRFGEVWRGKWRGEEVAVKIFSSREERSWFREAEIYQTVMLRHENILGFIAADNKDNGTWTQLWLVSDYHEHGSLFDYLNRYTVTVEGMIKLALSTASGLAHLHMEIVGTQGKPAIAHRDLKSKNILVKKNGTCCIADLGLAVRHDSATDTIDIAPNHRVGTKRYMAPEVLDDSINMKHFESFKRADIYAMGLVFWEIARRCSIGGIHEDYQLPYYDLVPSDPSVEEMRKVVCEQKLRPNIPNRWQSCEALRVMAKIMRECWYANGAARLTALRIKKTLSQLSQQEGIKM

[7] = target: Serine/threonine-protein kinase MARK1 (Homo sapiens) (UniProt Q9P0L2); assay: Inhibition of human recombinant MARK1 at 15 nM in presence of ATP by radiometric assay relative to control
Serine/threonine-protein kinase MARK1 (Homo sapiens), sequence (Q9P0L2 whole entry, looked up): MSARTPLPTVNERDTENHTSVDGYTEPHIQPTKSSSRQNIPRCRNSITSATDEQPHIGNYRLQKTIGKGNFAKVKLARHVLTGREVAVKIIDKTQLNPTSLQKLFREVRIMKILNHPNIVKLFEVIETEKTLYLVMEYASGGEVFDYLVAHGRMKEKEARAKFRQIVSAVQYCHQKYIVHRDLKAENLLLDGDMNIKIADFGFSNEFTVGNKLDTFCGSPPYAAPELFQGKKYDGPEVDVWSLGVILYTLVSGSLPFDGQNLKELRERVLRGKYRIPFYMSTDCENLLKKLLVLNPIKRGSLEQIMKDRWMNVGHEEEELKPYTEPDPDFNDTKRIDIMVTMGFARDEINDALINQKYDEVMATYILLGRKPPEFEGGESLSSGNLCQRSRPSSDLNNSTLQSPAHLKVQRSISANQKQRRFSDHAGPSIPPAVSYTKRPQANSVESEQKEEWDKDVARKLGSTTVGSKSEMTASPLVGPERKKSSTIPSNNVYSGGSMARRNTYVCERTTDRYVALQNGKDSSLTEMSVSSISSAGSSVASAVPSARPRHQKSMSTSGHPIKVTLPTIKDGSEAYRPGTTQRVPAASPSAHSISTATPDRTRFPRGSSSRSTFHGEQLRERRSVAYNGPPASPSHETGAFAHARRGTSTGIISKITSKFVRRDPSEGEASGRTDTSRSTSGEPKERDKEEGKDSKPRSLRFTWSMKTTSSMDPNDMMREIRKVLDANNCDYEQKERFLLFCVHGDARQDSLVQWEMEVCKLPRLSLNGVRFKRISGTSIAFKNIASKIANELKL

[8] = target: Ribosomal protein S6 kinase alpha-3 (Homo sapiens) (UniProt P51812); assay: Inhibition of human recombinant RSK2 at 40 nM related to control ULK1
Ribosomal protein S6 kinase alpha-3 (Homo sapiens), sequence (P51812 whole entry): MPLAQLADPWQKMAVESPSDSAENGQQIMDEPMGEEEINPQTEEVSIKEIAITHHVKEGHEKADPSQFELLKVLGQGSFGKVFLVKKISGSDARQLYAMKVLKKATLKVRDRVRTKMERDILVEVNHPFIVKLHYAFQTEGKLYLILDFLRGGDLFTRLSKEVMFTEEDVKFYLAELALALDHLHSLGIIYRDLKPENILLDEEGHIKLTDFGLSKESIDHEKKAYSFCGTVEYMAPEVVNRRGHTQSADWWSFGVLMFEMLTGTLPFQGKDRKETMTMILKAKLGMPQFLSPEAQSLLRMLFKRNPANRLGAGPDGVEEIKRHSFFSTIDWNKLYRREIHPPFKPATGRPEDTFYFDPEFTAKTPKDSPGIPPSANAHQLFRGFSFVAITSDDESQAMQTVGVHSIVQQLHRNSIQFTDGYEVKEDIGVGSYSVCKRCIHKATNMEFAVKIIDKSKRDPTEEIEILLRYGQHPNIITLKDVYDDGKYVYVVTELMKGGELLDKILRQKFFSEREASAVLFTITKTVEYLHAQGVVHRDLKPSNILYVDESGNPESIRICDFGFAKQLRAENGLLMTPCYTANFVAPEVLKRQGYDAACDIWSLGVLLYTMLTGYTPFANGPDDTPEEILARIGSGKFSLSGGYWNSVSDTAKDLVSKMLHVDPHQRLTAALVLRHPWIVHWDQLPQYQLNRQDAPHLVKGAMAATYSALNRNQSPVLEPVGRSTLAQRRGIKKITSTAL

[9] = target: Ephrin type-A receptor 7 (Homo sapiens) (UniProt Q15375); assay: Inhibition of human recombinant EphA7 at 40 nM related to control ULK1
Ephrin type-A receptor 7 (Homo sapiens), sequence (Q15375 28-998 limits assumed): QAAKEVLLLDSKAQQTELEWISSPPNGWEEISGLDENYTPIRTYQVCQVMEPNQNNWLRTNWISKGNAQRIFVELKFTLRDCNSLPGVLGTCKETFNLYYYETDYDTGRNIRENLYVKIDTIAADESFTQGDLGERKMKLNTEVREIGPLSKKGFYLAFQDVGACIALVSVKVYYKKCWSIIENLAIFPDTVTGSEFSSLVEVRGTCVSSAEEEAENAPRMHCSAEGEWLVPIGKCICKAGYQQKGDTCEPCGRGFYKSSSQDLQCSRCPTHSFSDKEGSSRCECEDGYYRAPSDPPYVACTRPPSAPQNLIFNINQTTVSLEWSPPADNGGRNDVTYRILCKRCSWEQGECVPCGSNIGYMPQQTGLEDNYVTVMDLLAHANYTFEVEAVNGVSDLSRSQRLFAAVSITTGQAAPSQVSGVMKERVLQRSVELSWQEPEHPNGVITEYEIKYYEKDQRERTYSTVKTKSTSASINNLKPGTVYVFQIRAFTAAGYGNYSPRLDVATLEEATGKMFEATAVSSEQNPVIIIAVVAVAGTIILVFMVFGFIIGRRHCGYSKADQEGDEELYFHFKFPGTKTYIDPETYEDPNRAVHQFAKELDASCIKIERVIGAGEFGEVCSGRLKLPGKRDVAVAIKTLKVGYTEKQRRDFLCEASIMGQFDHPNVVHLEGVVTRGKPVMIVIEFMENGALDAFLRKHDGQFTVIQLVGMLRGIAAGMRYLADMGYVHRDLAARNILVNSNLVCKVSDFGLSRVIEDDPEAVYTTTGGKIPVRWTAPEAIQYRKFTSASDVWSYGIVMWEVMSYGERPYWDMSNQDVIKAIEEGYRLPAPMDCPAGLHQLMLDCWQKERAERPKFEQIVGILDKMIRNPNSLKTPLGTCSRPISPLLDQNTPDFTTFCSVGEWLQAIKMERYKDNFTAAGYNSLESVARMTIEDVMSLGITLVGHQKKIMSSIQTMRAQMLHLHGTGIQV

[10] = target: Insulin receptor-related protein (Homo sapiens) (UniProt P14616); assay: Inhibition of human recombinant IRR at 40 nM in presence of ATP by radiometric assay relative to control
Insulin receptor-related protein (Homo sapiens), sequence (P14616 27-742 limits assumed): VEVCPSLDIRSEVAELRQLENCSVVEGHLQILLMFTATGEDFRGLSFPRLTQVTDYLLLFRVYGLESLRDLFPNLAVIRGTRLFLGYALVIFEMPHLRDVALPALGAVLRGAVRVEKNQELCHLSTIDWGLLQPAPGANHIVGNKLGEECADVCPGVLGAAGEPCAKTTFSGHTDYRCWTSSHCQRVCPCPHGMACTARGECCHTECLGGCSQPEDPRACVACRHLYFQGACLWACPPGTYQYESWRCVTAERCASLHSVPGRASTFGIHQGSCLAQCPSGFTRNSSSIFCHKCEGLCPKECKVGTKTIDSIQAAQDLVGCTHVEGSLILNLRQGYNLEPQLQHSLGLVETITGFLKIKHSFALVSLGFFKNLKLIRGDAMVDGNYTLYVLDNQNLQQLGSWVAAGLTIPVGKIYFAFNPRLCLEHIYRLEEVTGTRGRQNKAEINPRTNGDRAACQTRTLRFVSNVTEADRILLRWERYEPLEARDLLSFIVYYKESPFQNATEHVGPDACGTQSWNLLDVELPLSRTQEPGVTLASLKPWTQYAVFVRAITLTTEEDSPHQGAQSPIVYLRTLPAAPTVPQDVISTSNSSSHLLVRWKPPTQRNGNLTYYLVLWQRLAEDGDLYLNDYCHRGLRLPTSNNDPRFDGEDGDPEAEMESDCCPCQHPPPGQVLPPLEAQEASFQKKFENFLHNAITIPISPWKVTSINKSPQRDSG
Insulin receptor-related protein (Homo sapiens), sequence (P14616 747-1297 limits assumed): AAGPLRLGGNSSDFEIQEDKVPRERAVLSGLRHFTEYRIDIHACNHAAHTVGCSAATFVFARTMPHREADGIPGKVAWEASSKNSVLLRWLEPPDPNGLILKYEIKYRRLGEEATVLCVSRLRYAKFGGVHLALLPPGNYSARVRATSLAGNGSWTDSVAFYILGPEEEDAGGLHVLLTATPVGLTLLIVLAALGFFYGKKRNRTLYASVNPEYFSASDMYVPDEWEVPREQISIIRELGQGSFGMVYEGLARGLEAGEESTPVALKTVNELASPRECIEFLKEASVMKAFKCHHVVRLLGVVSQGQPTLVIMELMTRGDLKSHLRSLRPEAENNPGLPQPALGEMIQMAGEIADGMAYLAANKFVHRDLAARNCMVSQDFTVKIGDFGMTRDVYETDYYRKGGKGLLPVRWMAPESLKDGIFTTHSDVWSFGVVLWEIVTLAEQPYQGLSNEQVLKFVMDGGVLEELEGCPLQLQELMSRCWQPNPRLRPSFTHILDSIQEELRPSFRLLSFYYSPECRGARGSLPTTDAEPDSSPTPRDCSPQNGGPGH

Homeodomain-interacting protein kinase 3 (Homo sapiens), sequence (Q9H422 whole entry, looked up): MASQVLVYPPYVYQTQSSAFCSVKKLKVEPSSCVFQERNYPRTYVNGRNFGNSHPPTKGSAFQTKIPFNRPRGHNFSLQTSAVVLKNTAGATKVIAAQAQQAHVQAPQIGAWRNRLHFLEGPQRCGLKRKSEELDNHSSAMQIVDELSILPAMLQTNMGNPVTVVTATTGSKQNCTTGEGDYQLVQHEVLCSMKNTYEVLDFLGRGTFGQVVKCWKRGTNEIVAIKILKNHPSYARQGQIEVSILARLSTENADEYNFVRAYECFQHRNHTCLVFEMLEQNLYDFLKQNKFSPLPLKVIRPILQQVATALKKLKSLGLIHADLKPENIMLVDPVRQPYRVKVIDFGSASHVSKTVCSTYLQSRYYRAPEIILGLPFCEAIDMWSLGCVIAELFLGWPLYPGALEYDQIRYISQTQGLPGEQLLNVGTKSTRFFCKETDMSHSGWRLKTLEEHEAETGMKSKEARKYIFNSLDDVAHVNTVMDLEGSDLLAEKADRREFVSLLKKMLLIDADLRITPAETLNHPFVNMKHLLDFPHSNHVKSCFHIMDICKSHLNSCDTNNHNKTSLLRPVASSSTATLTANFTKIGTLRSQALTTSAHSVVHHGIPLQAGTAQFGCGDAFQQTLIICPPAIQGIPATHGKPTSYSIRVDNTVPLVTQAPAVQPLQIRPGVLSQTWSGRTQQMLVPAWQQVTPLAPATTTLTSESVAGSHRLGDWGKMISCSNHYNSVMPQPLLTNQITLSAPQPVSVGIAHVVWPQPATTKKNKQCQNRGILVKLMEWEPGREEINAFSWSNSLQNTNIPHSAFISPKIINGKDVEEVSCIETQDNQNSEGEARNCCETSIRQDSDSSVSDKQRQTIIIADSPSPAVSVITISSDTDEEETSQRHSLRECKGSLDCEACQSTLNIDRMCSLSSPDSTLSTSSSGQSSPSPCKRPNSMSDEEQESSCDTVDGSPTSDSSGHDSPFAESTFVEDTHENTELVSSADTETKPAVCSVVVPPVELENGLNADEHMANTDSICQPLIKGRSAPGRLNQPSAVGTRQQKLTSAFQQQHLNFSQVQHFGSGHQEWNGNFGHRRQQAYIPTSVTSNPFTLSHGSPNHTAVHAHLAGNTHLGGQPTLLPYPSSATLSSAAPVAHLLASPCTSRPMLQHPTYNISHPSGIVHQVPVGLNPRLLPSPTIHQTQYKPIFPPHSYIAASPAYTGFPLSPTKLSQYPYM

With `CNC(=O)c1ccccc1Oc1nc(Nc2cc(OC)c(OC)c(OC)c2)ncc1Br` the inhibition [1] was 6%, the inhibition [2] was 1% and the fold change (FC) [3] was 0.78. For the same molecule, the inhibition [4] was 0%.

`CC(C)[C@H](NC(=O)c1cc(-c2cnn3cc(-c4ccc(OCCN5CCCCC5)cc4)cnc23)cs1)C(F)(F)F` showed a fold change (FC) [5] of 0.2, an inhibition [6] of 4% and an inhibition [7] of 54%.

Molecule `O=C(N[C@@H](C1CC1)C(F)(F)F)c1cc(-c2cnn3cc(-c4ccc(F)cc4)cnc23)cs1` has a fold change (FC) [8] of 0, a fold change (FC) [9] of 0 and an inhibition [10] of 2%.
